Source: patent publication US20250171776A1, “NON-CANONICAL CELL-PENETRATING PEPTIDES FOR ANTISENSE OLIGOMER DELIVERY” (priority 2023, published 2025)
Where no end group is shown, it is not given here. [ ]: non-standard residue; d: D form. Iph = iodophenylalanine

How the values were obtained:
Type in all cases: cell-based
HeLa 654 cells [1] = assay: HeLa 654 eGFP assay (flow cytometry, mean eGFP fluorescence, 22 h); conditions: 1 μM, 22 h
Experimental: Purified constructs were then tested using an activity-based readout in which nuclear delivery results in fluorescence. Briefly, HeLa cells stably transfected with an Enhanced Green Fluorescent Protein (eGFP) gene interrupted by a mutated intron of β-globin (IVS2-654) produce a non-fluorescent eGFP protein. As used herein, Hela-654 cells refers to the Hela cells transfected with an Enhanced Green Fluorescent Protein (eGFP) gene interrupted by a mutated intron of β-globin (IVS2-654) and Hela-654 eGFP Assay is used to refer to an Assay that uses the Hela-654 cells. Successful delivery of PMO IVS2-654 to the nucleus results in corrective splicing and eGFP synthesis.
The amount of PMO delivered to the nucleus is therefore correlated with eGFP fluorescence, quantified by flow cytometry. Activity was reported as mean fluorescence intensity (MFI) relative to PMO alone. This activity assay provides indirect information on how much active PMO is delivered to the nucleus. Relative efficiency of a PMO-CPP conjugate was characterized by comparing activity to internal concentration.
[…] 18 h prior to treatment, the cells were plated at a density of 5,000 cells per well in a 96-well plate in DMEM supplemented with 10% FBS and 1% penicillin-streptomycin.
For individual peptide testing, PPMOs were dissolved in phosphate buffered saline (PBS) without Ca^2+ or Mg^2+ at a concentration of 1 mM (determined by UV absorbance of the PMO) before being diluted in Dulbecco's modified eagle medium (DMEM). Cells were incubated at the designated concentrations in triplicate for 22 h at 37° C. and 5% CO2. Next, the treatment media was removed, and the cells were washed once before being incubated with 0.25% Trypsin-EDTA for 15 min at 37° C. and 5% CO2. Lifted cells were transferred to a V-bottom 96-well plate and washed once with PBS, before being resuspended in PBS containing 2% FBS and 2 μg/mL propidium iodide (PI). Flow cytometry analysis was carried out on a BD LSRII flow cytometer. Gates were applied to the data to ensure that cells that were positive for propidium iodide or had forward/side scatter readings that were sufficiently different from the main cell population were excluded. Each sample was capped at 5,000 gated events.
Analysis was conducted using Graphpad Prism 7 and FlowJo. For each sample, the mean fluorescence intensity (MFI) and the number of gated cells were measured. To report activity, triplicate MFI values were averaged and normalized to the PMO alone condition.

HELA-654 cells = assay: Hela-654 eGFP assay (incucyte imaging, GFP positive cells, 72 h); conditions: chimeric peptide PMO conjugates, 72 h, read-out: EC50 (at 72 h)
Experimental: HELA-654 cells were imaged at 72 hours with an incucyte and the number of GFP positive cells versus total cell counts were calculated with the incucyte image analysis software. Statistical analysis was conducted using a one-way analysis of variance (ANOVA) test with Dunnett's multiple comparison test. Bars represent mean±standard deviation (SD), with P<0.05 was considered to indicate statistical significance, (**** p<0.0001, *** […], ** p<0.01, * p<0.05).
HELA-654 cells were imaged at 72 hours with an incucyte and the number of GFP positive cells versus total cell counts were calculated with the incucyte image analysis software.

HeLa 654 cells [2] = assay: Lactate dehydrogenase (LDH) release assay in HeLa 654 cells; conditions: 50 μM
Experimental: (§1) The media from the cells was analyzed for LDH release with an LDH assay and the percentage of LDH release was calculated relative to fully lysed cells.
(§2) Cytotoxicity assays were performed in HeLa 654 cells or TH-1 renal cells. TH-1 cells were maintained in DMEM supplemented with 10% (v/v) fetal bovine serum (FBS) and 1% (v/v) penicillin-streptomycin at 37° C. and 5% CO2H-1. Cells were plated at 5,000 cells/well in a 96-well plate 18-hours prior to treatment and treated with PMO-peptide compounds as described above. HeLa cell LDH assays were performed concurrently on the cells treated for Flow cytometry, so all plating and treatment protocols match those described above.
(§3) 17 hours after cell treatment, the Promega CytoTox lysis solution was added to 3 wells of each plate as a fully lysed control (100% LDH-release). 18 hours after treatment, cell supernatant was transferred to a new 96-well plate for analysis of LDH release. To each well of the 96-well plate containing supernatant was added CytoTox 96 Reagent (Promega). […] Equal volume of Stop Solution was added to each well, mixed, and the absorbance of each well was measured at 490 nm. The measurement of vehicle-treated cells was subtracted from each measurement, and % LDH release was calculated as % cytotoxicity=100×Experimental LDH Release (OD490)/Maximum LDH Release (OD490).

TH-1 renal cells = assay: Lactate dehydrogenase (LDH) release assay in TH-1 renal cells; conditions: LDH release at 18 hours
Experimental: as §1, §2, §3

“Lys-Gln-Lys-Thr-Ser-Iph-Gly-Arg-Lys-Trp-Lys-Gln-Lys-Thr-Ser-Iph-Gly-Arg-Lys-Trp-Lys-Lys (KQKTS[Iph]GRKWKQKTS[Iph]GRKWKK; not fully specified (N-terminus, C-terminus); printed as Lys-Gln-Lys-Thr-Ser-Iph-Gly-Arg-Lys-Trp-Lys-Gln-Lys-Thr-Ser-Iph-Gly-Arg-Lys-Trp-Lys-Lys; also: PMO IVS2-654 conjugate) [CXD1B]” was tested, and the “PMO delivery (mean eGFP fluorescence relative to vehicle)” value (HeLa 654 cells [1]) was “high PMO delivery”, the EC50 (HELA-654 cells) was 3.54 µM and the “Toxicity: LDH release” value (HeLa 654 cells [2]) was “lower toxicity than the CXP1-CXP1 sequence”. For the same substance, the “Therapeutic window (HeLa-654 eGFP efficacy versus LDH release in TH-1 renal cells)” value (TH-1 renal cells) was “wider therapeutic window in comparison to other PMO-peptide conjugates”.
